Assay results: ChEMBL document CHEMBL1777778 (Bioorg Med Chem Lett, 2011)
Values after ≈ are worked out from the molar mass of the structure shown.

How the values were obtained:
[1] = Volume of distribution at steady state in Hanover Wistar rat at 3 mg/kg, iv; type: ADME, organism-based; design: dose 3 mg/kg, route intravenous; conditions: in vivo, read-out: Vdss
[2] = Clearance in Hanover Wistar rat at 3 mg/kg, iv; type: ADME, organism-based; design: dose 3 mg/kg, route intravenous; conditions: in vivo
[3] = Intrinsic clearance in rat liver microsomes assessed per mg of protein; type: ADME, Microsome
[4] = Half life in Hanover Wistar rat at 3 mg/kg, iv; type: ADME, organism-based; design: dose 3 mg/kg, route intravenous; conditions: in vivo
[5] = Oral bioavailability in Hanover Wistar rat at 3 mg/kg; type: ADME, organism-based; conditions: in vivo
[6] = Cmax in Hanover Wistar rat at 3 mg/kg, po; type: ADME, organism-based; design: dose 3 mg/kg, route oral; conditions: in vivo
[7] = Intrinsic clearance in human liver microsomes assessed per mg of protein; type: ADME, Microsome
[8] = AUC in Hanover Wistar rat at 3 mg/kg, po; type: ADME, organism-based; design: dose 3 mg/kg, route oral; conditions: plasma
[9] = Permeability across apical to basolateral side of human Caco2 cells at 10 uM after 21 days; type: ADME, cell-based; conditions: Caco-2, read-out: permeability
[10] = Permeability across basolateral to apical side in human Caco2 cells at 10 uM after 21 days; type: ADME, cell-based; conditions: Caco-2, read-out: permeability
[11] = Aqueous solubility of the compound in phosphate buffer at pH 6.5 by reverse phase HPLC analysis; type: physicochemical

- Vd [1]: 8.1 L/kg
- clearance [2]: 43.6 mL/min/kg
- microsomal CLint [3]: 6.2 µL/min/mg
- half-life [4]: 3.4 h
- bioavailability [5]: 105%
- Cmax [6]: 446 ng/mL
- microsomal CLint [7]: 0.74 µL/min/mg
- AUC [8]: 1220 ng·h/mL
- Papp A→B at 10 µM [9]: 3 ×10⁻⁶ cm/s
- Papp B→A at 10 µM [10]: 18.9 ×10⁻⁶ cm/s
- solubility [11]: 57.2 µg/mL (≈ 149 µM)
Structure (SMILES): C[C@H](CS(C)(=O)=O)Nc1n[nH]c2nc(Oc3ccc(F)cc3F)ncc12
